According to PubChem BioAssay (NCI):
Structures can show the parent of a compound that is named as a salt.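 Dose response: 5 concentrations. Exposure: 48 h. Format: 96-well plates. Endpoint: linear interpolation; highest concentration if not reached. The concentration for full growth arrest is given as TGI.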 Where a SMILES comes first, the peptide text is derived from it. The star is where a group is joined. Tfa = O=C(C(F)(F)F)*

Assays:
Test in all cases: NCI tumour cell line growth inhibition, 48 h
[1] = system: SW-620 colon
[2] = system: NCI-H23 lung
[3] = system: RXF 393 renal
[4] = system: KM12 colon
[5] = system: UACC-62 melanoma
[6] = system: BT-549 breast
[7] = system: HS 578T breast
[8] = system: A498 renal
[9] = system: CAKI-1 renal
[10] = system: SF-539 CNS

SMILES	TGI [1]	TGI [2]	TGI [3]	TGI [4]	TGI [5]	TGI [6]	TGI [7]	TGI [8]	TGI [9]	TGI [10]
CC(=O)OC12/C(=N/O)CCCCCC1c1ccccc12 (centres undefined)	> 100 µM	> 100 µM	> 100 µM	> 100 µM	> 100 µM					
COc1cc(C2SCC(=O)N2c2cc(Cl)c(Cl)cc2Cl)cc(OC)c1OC (centres undefined)	> 100 µM	> 100 µM		> 100 µM	97.6 µM	64.7 µM	> 100 µM	> 100 µM	> 100 µM	> 100 µM
CCc1ccc(N=Cc2cc(OC)c(OC)c(OC)c2)cc1	28.7 µM	> 100 µM	> 100 µM	> 100 µM	> 100 µM			> 100 µM	> 100 µM	> 100 µM
Nc1sc2c(c1C(=O)c1ccc(Cl)c(Cl)c1)CCCC2	> 100 µM	> 100 µM	> 100 µM	> 100 µM	> 100 µM	> 100 µM	> 100 µM		> 100 µM	> 100 µM
O=C(O)CC(NC(=O)C(F)(F)F)C(=O)NC(Cc1ccc(O)cc1)C(=O)O (stereo not drawn) (Tfa-Asp-Tyr-OH; configuration not given here)	> 50 µM	> 50 µM	> 50 µM	> 50 µM	> 50 µM	> 50 µM	> 50 µM		> 50 µM	> 50 µM
O=C(OCc1ccccc1CN1CCOCC1)c1cccc(Br)c1	> 100 µM	80 µM	> 100 µM		> 100 µM	> 100 µM	> 100 µM	> 100 µM	64.6 µM	> 100 µM
CN(C)C(Cc1cnc[nH]1)C(=O)N1CCCC1C(N)=O (centres undefined)	> 100 µM	> 100 µM	> 100 µM	> 100 µM	> 100 µM	> 100 µM	> 100 µM	98 µM	> 100 µM	
COC1=C2CC(C)CC(OC)C(O)C(C)/C=C(\C)C(OC(N)=O)C(OC)/C=C\C=C(/C)C(=O)NC(=C(C=NC(C)(C)C)C1=O)C2=O (centres undefined)	20.9 µM	5.17 µM	4.89 µM	15 µM	17.6 µM			23.6 µM	23.7 µM	24.2 µM
O=c1sc2c(s1)SSSSS2	> 50 µM	> 50 µM	> 50 µM	> 50 µM	> 50 µM	> 50 µM		> 50 µM	> 50 µM	> 50 µM
CN(C)CCOc1cccc2c1C(=O)c1ccccc1C2=O	43.7 µM	24 µM	27.3 µM	26.2 µM	29.8 µM			33.3 µM	43.8 µM	22.6 µM
O=[N+]([O-])c1nc(-c2ccccn2)[nH]c1[N+](=O)[O-]	> 100 µM	> 100 µM	> 100 µM	> 100 µM	85.7 µM			> 100 µM	> 100 µM	> 100 µM
O=P1(O)C=CC2(CCCC2)O1	> 100 µM	> 100 µM		> 100 µM	> 100 µM			> 100 µM		> 100 µM
CC[C@@]1(N(C)C)C(=O)OCc2c1cc1n(c2=O)Cc2cc3ccccc3nc2-1	> 100 µM	32 µM	31 µM	> 100 µM	56.6 µM	39.5 µM		> 100 µM		
CC(=O)Nc1ccc(Nc2cc(=O)[nH]c(=O)[nH]2)cc1	> 100 µM		> 100 µM	> 100 µM		> 100 µM	> 100 µM	> 100 µM		> 100 µM
CCCCCC(C)(C)CCC(=O)OC1OC(COC2OC(COC3OC(CO)C(O)C(O)C3O)C(O)C(O)C2O)C(O)C(O)C1O (centres undefined)	> 100 µM	> 100 µM	> 100 µM	> 100 µM	> 100 µM	> 100 µM	> 100 µM	> 100 µM		> 100 µM
COc1cc2c(/C=C3/C(=O)N(C)c4ccccc43)c(Cl)[nH]c2cc1C	> 100 µM	1.55 µM	70.5 µM		> 52.3 µM	3.64 µM	> 100 µM	> 50.6 µM	> 52.8 µM	0.0807 µM
OCC1OC(n2nc(-c3ccccc3)nc2-c2cnccn2)C(O)C(O)C1O (centres undefined)	> 100 µM	> 100 µM		> 100 µM	> 100 µM	> 100 µM				> 100 µM
NC(=O)c1nnc2ccc(F)cc2c1N	> 100 µM	> 100 µM		> 100 µM	> 100 µM	> 100 µM	> 100 µM	> 100 µM	> 100 µM	> 100 µM
Cc1ccc(-c2nc(C)c(C(=O)Nc3ccc(Cl)cc3)s2)cc1	> 100 µM	83.6 µM		> 100 µM	45.8 µM	78.2 µM	62.1 µM	41.5 µM	40.8 µM	> 100 µM
CC(C)(C)c1cc(CC2C(=O)c3ccccc3C2=O)cc(C(C)(C)C)c1O	17.1 µM	> 100 µM		19.1 µM	17.7 µM	18.1 µM	39.8 µM	47.7 µM	20.4 µM	16.7 µM
COC(=O)c1c2c(cc3c1CC1(Cc4cc5c(c(C=O)c4C1)CCCC5)C3)CCCC2 (centres undefined)		> 100 µM	> 100 µM		> 100 µM		> 100 µM	> 100 µM		> 100 µM
CCOC(=O)c1c2c3c(cccc3[nH]c1=O)Sc1ncccc1-2	> 100 µM	86.3 µM	94.9 µM		35.2 µM	> 100 µM	> 100 µM		70.7 µM	> 100 µM
COc1ccc2nc3cc(Cl)ccc3c(NCCCN(Cc3cc(OC)c(OC)c(OC)c3)Cc3cc(OC)c(OC)c(OC)c3)c2c1	3.22 µM		15.2 µM	28.3 µM	32.3 µM	28 µM	36.6 µM		30.3 µM	10.5 µM
